Columns and labels:
Assay in all cases: relative viability (nuclei count vs DMSO), 5 days (fraction); higher = more cells survive
[1] = compound: C[C@]12O[C@H](C[C@]1(O)CO)n1c3ccccc3c3c4c(c5c6ccccc6n2c5c31)CNC4=O [Lestaurtinib] + CS(=O)(=O)CCNCc1ccc(-c2ccc3ncnc(Nc4ccc(OCc5cccc(F)c5)c(Cl)c4)c3c2)o1 [Lapatinib] (partner 2 µM)
In short: (§1)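 Relative viability was taken as the ratio of nuclei in treated wells to nuclei in vehicle wells. Lung cancer cell lines in 1536-well plates received compounds by pin tool one day after seeding, either one drug alone or a fixed anchor-drug dose plus five library-drug doses (not always all listed) in √10 steps. Nuclei were counted on 4× images after 5 days of treatment, and values are medians of duplicate plates.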

[2] = compound: C1=CC(=CC=C1C2=CC(=C(S2)NC(=O)N)C(=O)N)F [TPCA-1] + CC(C)C[C@H](NC(=O)[C@H](Cc1ccccc1)NC(=O)c1cnccn1)B(O)O [Bortezomib] (partner 0.002 µM)
In short: as §1

[3] = compound: C[C@]12O[C@H](C[C@]1(O)CO)n1c3ccccc3c3c4c(c5c6ccccc6n2c5c31)CNC4=O [Lestaurtinib] + C[C@@H](Oc1cc(-c2cnn(C3CCNCC3)c2)cnc1N)c1c(Cl)ccc(F)c1Cl [Crizotinib] (partner 1 µM)
In short: as §1

[4] = compound: C[C@]12O[C@H](C[C@]1(O)CO)n1c3ccccc3c3c4c(c5c6ccccc6n2c5c31)CNC4=O [Lestaurtinib] + COc1cc2c(Oc3ccc(NC(=O)C4(C(=O)Nc5ccc(F)cc5)CC4)cc3F)ccnc2cc1OCCCN1CCOCC1 [Foretinib] (partner 0.25 µM)
In short: as §1

| Cell Line | relative viability ([1]; first compound 0.005 µM) | relative viability ([1]; first compound 0.01581 µM) | relative viability ([1]; first compound 0.05 µM) | relative viability ([1]; first compound 0.1581 µM) | relative viability ([1]; first compound 0.5 µM) | relative viability ([2]; first compound 0.04 µM) | relative viability ([2]; first compound 0.1265 µM) | relative viability ([2]; first compound 0.4 µM) | relative viability ([2]; first compound 1.265 µM) | relative viability ([2]; first compound 4 µM) | relative viability ([3]; first compound 0.005 µM) | relative viability ([3]; first compound 0.01581 µM) | relative viability ([3]; first compound 0.05 µM) | relative viability ([3]; first compound 0.1581 µM) | relative viability ([3]; first compound 0.5 µM) | relative viability ([4]; first compound 0.005 µM) | relative viability ([4]; first compound 0.01581 µM) | relative viability ([4]; first compound 0.05 µM) | relative viability ([4]; first compound 0.1581 µM) | relative viability ([4]; first compound 0.5 µM) |
| --- | --- | --- | --- | --- | --- | --- | --- | --- | --- | --- | --- | --- | --- | --- | --- | --- | --- | --- | --- | --- |
| SK-LU-1 | 0.732 | 0.805 | 0.473 | 0.402 | 0.2 | 1.26 | 0.962 | 1.1 | 0.879 | 0.739 | 0.663 | 0.915 | 0.433 | 0.516 | 0.312 | 0.763 | 0.707 | 0.4 | 0.38 | 0.205 |
| LOU-NH91 | 0.768 | 0.721 | 0.638 | 0.562 | 0.404 | 0.508 | 0.514 | 0.502 | 0.523 | 0.574 | 0.755 | 0.718 | 0.627 | 0.547 | 0.469 | 0.921 | 0.842 | 0.844 | 0.651 | 0.459 |
| LXF-289 | 0.867 | 0.917 | 0.713 | 0.769 | 0.375 | 1.03 | 0.941 | 0.987 | 1.01 | 0.781 | 0.791 | 0.815 | 0.568 | 0.798 | 0.183 | 1.02 | 1.04 | 0.827 | 0.905 | 0.198 |
| NCI-H1299 | 0.972 | 1.01 | 0.893 | 0.862 | 0.479 | 1.02 | 0.961 | 1.01 | 0.981 | 1.07 | 0.912 | 0.953 | 0.542 | 0.68 | 0.467 | 1.07 | 1.14 | 0.68 | 0.832 | 0.671 |
| HARA | 0.795 | 0.748 | 0.738 | 0.68 | 0.369 | 1.08 | 1.13 | 1.14 | 1.03 | 1.07 | 1.19 | 1.21 | 0.86 | 0.994 | 0.162 | 0.958 | 0.856 | 0.838 | 0.827 | 0.126 |
| LU99A | 0.839 | 0.627 | 0.446 | 0.38 | 0.213 | 1.32 | 1.13 | 1.01 | 0.971 | 0.48 | 0.606 | 0.49 | 0.275 | 0.314 | 0.162 | 0.733 | 0.73 | 0.575 | 0.469 | 0.247 |
| 201T | 1.05 | 1.08 | 1.04 | 1.2 | 0.961 | 1.12 | 1.1 | 1.19 | 1.12 | 1.12 | 1.09 | 1.03 | 1.08 | 1.08 | 0.903 | 1.13 | 1.21 | 1.17 | 1.14 | 0.356 |
| HCC-827 | 0.201 | 0.197 | 0.212 | 0.188 | 0.192 | 1.06 | 1.06 | 1.09 | 0.964 | 0.89 | 0.911 | 1.08 | 0.85 | 0.71 | 0.335 | 1.02 | 1.02 | 0.835 | 0.803 | 0.202 |
| NCI-H1666 | 0.732 | 1.2 | 0.51 | 0.556 | 0.277 | 0.808 | 0.807 | 0.996 | 0.767 | 0.8 | 1.04 | 1.38 | 1.39 | 0.96 | 0.409 | 1.1 | 1.07 | 1.6 | 1.02 | 0.595 |
| NCI-H1915 | 0.971 | 1.12 | 0.922 | 0.82 | 0.294 | 0.949 | 0.961 | 0.954 | 0.664 | 0.886 | 0.914 | 1.1 | 0.816 | 0.848 | 0.357 | 1.14 | 1.21 | 0.869 | 0.762 | 0.287 |
| NCI-H2009 | 0.959 | 0.942 | 0.807 | 0.755 | 0.15 | 1.25 | 0.921 | 1.07 | 0.516 | 0.536 | 1.02 | 1.09 | 1 | 0.637 | 0.454 | 1.24 | 1.3 | 1.17 | 1.09 | 0.751 |
| ChaGo-K-1 |  |  |  |  |  | 0.83 | 0.995 | 1.11 | 0.903 | 0.377 | 1.25 | 1.33 | 0.855 | 0.778 | 0.381 | 0.946 | 1.04 | 0.828 | 0.788 | 0.373 |
| COR-L 105 | 0.358 | 0.389 | 0.289 | 0.304 | 0.256 | 0.846 | 0.808 | 0.982 | 0.516 | 0.333 | 0.703 | 1.02 | 0.684 | 0.618 | 0.233 | 1.29 | 1.19 | 1.27 | 1.18 | 0.669 |

— the supplement of paper PMC10307832
